Experimental data: patent publication US12109231B2 (Neuvivo, Inc., priority 2015, dated 2024)
Where two headings read alike, the source gives them in different places.

Experiments:
[1] = test system: G93A SOD-1 mt. mouse model of ALS; conditions: SOD-1 mutant mice, 2 mg/kg intravenously every three weeks
Protocol: Chlorite composition administration and survival studies have been done in G93A SOD-1 mt. mouse model of ALS. In this model, the SOD-1 mutant mice begin developing degeneration of neurologic function starting at approximately 70 days of age. The mice were dosed with chlorite composition at 2 mg/kg intravenously every three weeks with neuroscore and survival information being collected weekly.

patient with depression = test system: patient with depression
Source text: (§1) Plasma/serum samples are obtained and submitted to a lab-based immunoassay to quantify inflammatory markers in the plasma/serum sample. Inflammatory markers are compared to the patient's pre-treatment levels of plasma/serum inflammatory markers.

[2] = test system: patient with schizophrenia
Source text: as §1

[3] = test system: patient with posttraumatic stress disorder
Source text: as §1

[4] = test system: patient with bipolar disorder
Source text: as §1

patient with autism = test system: patient with autism
Source text: as §1

[5] = test system: monocyte/macrophage activation; conditions: in vivo
[6] = test system: monocyte/macrophage activation; conditions: in vitro
IL-18 = conditions: Phase 2, responders with elevated IL-18 at baseline
Source text: (§2) These clinical data provided compelling rationale to test […] in pre-clinical models of Parkinson's disease to investigate its brain penetrance, ability to modulate microglia activation and peripheral immune cell infiltration to the CNS, and protect vulnerable neuronal populations from synuclein-induced degeneration.

LPS = conditions: Phase 2, responders positive for LPS at baseline
Source text: as §2

ALS patients = test system: ALS patients
Source text: as §2

markers of inflammation = conditions: ALS patients, after a single dose

In the case of sodium chlorite, the “survival compared with sham treated animals” value [1] is reported as “almost three weeks longer”, the “neurologic degeneration (neuroscore)” value ([1]; vs sham) is reported as “delayed by a similar time” and the “behavioral and/or neurophysical symptoms of depression” value (patient with depression; after weekly injection) is reported as “found to be reduced”. The “levels of plasma/serum inflammatory markers after treatment” value (patient with depression; depression, vs pre-treatment levels) was “reduced”, the “behavioral and/or neurophysical symptoms of schizophrenia” value ([2]; after weekly injection) was “found to be reduced” and the “levels of plasma/serum inflammatory markers after treatment” value ([2]; schizophrenia, vs pre-treatment levels) was “reduced”. The “behavioral and/or neurophysical symptoms of posttraumatic stress disorder” value ([3]; after weekly injection) was “found to be reduced”, the “levels of plasma/serum inflammatory markers after treatment” value ([3]; posttraumatic stress disorder, vs pre-treatment levels) was “reduced” and the “behavioral and/or neurophysical symptoms of bipolar disorder” value ([4]; after weekly injection) was “found to be reduced”. The “levels of plasma/serum inflammatory markers after treatment” value ([4]; bipolar disorder, vs pre-treatment levels) was “reduced”, the “behavioral and/or neurophysical symptoms of autism” value (patient with autism; after weekly injection) was “found to be reduced” and the “levels of plasma/serum inflammatory markers after treatment” value (patient with autism; autism, vs pre-treatment levels) was “reduced”. The “markers of monocyte/macrophage activation” value [5] was “reversed”, the “markers of monocyte/macrophage activation” value [6] was “reversed” and the “reduction of the difference between ALS and normal control level of monocyte CD16 expression toward the normal value” (monocyte CD16; 24 hours after one dose, compared with baseline pretreatment levels) was “approximately 50%”. The “level of CD16 expression on the CD16 bright subset of monocytes” value (monocyte CD16; chlorite treated patients compared to placebo) was “Dose-dependent changes”, the “IL-18 in responders following treatment” value (IL-18) was “decreased following treatment” and the “LPS in responders following treatment” value (LPS) was “decreased following treatment”. The “symptom progression in a subset of patients” value (ALS patients; Phase 2) was “may have dose-dependently halted symptom progression”, the “slower rate of progression than placebo patients” value (ALS patients; Phase 2, 2 mg/kg, patients above the median wr-CRP, six months of study) was 44% and the “dose dependence of disease progression in patients with above the median wr-CRP value” (ALS patients; Phase 2, baseline wr-CRP above 1125 ng/ml) was “dose dependent slowing of disease progression”. The “patients who did not progress / stopped progressing” value (ALS patients; Phase 2, high dose (2 mg/kg), six months of treatment) was 25%, the “number of non-progressing patients relative to placebo” value (ALS patients; Phase 2, high dose, six months of treatment) was “More than 2 times” and the “progression in patients with greater inflammation (higher CRP)” value (ALS patients; Phase 2, high-dose group) was “slowing of progression was observed”. The markers of inflammation (markers of inflammation) was “decrease markers of inflammation”.
